Test system: yeast genes (level of expressed mRNA)
Assay: DNA chip analysis of expressed mRNA of yeast genes after 2 h culture with a toxic chemical substance
Assay type: cell-based, Saccharomyces cerevisiae S288C
Conditions: for The level of expressed mRNA in the presence of chemical substance/ (ratio to absence): transport facilitation protein gene; for The level of expressed mRNA in the presence of chemical substance/: ratio to no chemical; for The level of expressed mRNA in the presence of chemical substance/ (ratio to absence of chemical substance): stress protein genes, DNA chip
Method in brief: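 S. cerevisiae S288C in YPD at 25 °C was exposed at log phase for 2 h to a growth-inhibiting, non-lethal concentration of the chemical. Poly(A) mRNA was reverse-transcribed with Cy3- or Cy5-dUTP and hybridized to a whole-genome yeast DNA chip (65 °C, >12 h). Values are fluorescence ratios versus untreated cells.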

sodium dodecylbenzosulfonate [(17)]
The level of expressed mRNA in the presence of chemical substance/ (ratio to absence) (yeast gene YKL188C): 1.1 | The level of expressed mRNA in the presence of chemical substance/ (ratio to absence) (yeast gene YKL192C): 1.0 | The level of expressed mRNA in the presence of chemical substance/The level of expressed mRNA in the absence of chemical substance (yeast gene YKL193C): 1.2 | The level of expressed mRNA in the presence of chemical substance/ (ratio to absence) (yeast gene YKL209C): 1.1 | The level of expressed mRNA in the presence of chemical substance/ (ratio to absence) (yeast gene YKL217W): 1.7 | The level of expressed mRNA in the presence of chemical substance/in the absence of chemical substance (yeast gene YKL218C): 2.5 | The level of expressed mRNA in the presence of chemical substance/ (ratio to absence) (yeast gene YKL221W): 0.8 | The level of expressed mRNA in the presence of chemical substance/ (yeast gene YKR007W): 0.8 | The level of expressed mRNA in the presence of chemical substance/ (in its absence), gene YKR009C (yeast gene YKR009C, ratio of DNA chip fluorescence intensity to that without chemical substance): 1.9 | The level of expressed mRNA in the presence of chemical substance/ (yeast gene YKR020W): 1.3 | The level of expressed mRNA in the presence of chemical substance/ (in its absence), gene YKR034W (yeast gene YKR034W, ratio of DNA chip fluorescence intensity to that without chemical substance): 0.8 | The level of expressed mRNA in the presence of chemical substance/ (ratio to absence) (yeast gene YKR039W): 0.9 | The level of expressed mRNA in the presence of chemical substance/ (ratio to absence of chemical substance) (yeast gene YKR053C): 2.8 | The level of expressed mRNA in the presence of chemical substance/ in its absence, gene YKR058W (yeast gene YKR058W, energy system protein genes, 2 h culture with the chemical, ratio to control without chemical): 0.8 | The level of expressed mRNA in the presence of chemical substance/ (yeast gene YKR071C): 0.9 | The level of expressed mRNA in the presence of chemical substance/in the absence of chemical substance (yeast gene YKR097W): 1.1 | The level of expressed mRNA in the presence of chemical substance/ (ratio to absence) (yeast gene YKR105C): 0.8 | The level of expressed mRNA in the presence of chemical substance/ (ratio to absence) (yeast gene YKR106W): 0.9 | The level of expressed mRNA in the presence of chemical substance/ (yeast gene YLL025W): 1.0 | The level of expressed mRNA in the presence of chemical substance/ (ratio to absence) (yeast gene YLL028W): 1.2 | The level of expressed mRNA in the presence of chemical substance/ (ratio to absence) (yeast gene YLL055W): 1.1 | The level of expressed mRNA in the presence of chemical substance/ (ratio to absence) (yeast gene YLL061W): 0.6 | The level of expressed mRNA in the presence of chemical substance/ (yeast gene YLL062C): 0.9 | The level of expressed mRNA in the presence of chemical substance/ (in its absence), gene YLR006C (yeast gene YLR006C, ratio of DNA chip fluorescence intensity to that without chemical substance): 1.6 | The level of expressed mRNA in the presence of chemical substance/ (ratio to absence of chemical substance) (yeast gene YLR006C): 1.6 | The level of expressed mRNA in the presence of chemical substance/in the absence of chemical substance (yeast gene YLR027C): 1.3 | The level of expressed mRNA in the presence of chemical substance/ (ratio to absence) (yeast gene YLR092W): 1.0 | The level of expressed mRNA in the presence of chemical substance/ (yeast gene YLR108C): 1.0 | The level of expressed mRNA in the presence of chemical substance/The level of expressed mRNA in the absence of chemical substance (yeast gene YLR120C): 3.5 | The level of expressed mRNA in the presence of chemical substance/in the absence of chemical substance (yeast gene YLR133W): 1.1 | The level of expressed mRNA in the presence of chemical substance/The level of expressed mRNA in the absence of chemical substance (yeast gene YLR136C): 1.8 | The level of expressed mRNA in the presence of chemical substance/ (yeast gene YLR145W): 1.0 | The level of expressed mRNA in the presence of chemical substance/in the absence of chemical substance (yeast gene YLR155C): 1.4 | The level of expressed mRNA in the presence of chemical substance/ (yeast gene YLR156W): 1.1 | The level of expressed mRNA in the presence of chemical substance/in the absence of chemical substance (yeast gene YLR158C): 1.4 | The level of expressed mRNA in the presence of chemical substance/The level of expressed mRNA in the absence of chemical substance (yeast gene YLR178C): 2.0 | The level of expressed mRNA in the presence of chemical substance/in the absence of chemical substance (yeast gene YLR195C): 0.9 | The level of expressed mRNA in the presence of chemical substance/ (yeast gene YLR247C): 1.2 | The level of expressed mRNA in the presence of chemical substance/The level of expressed mRNA in the absence of chemical substance (yeast gene YLR250W): 1.4 | The level of expressed mRNA in the presence of chemical substance/ (yeast gene YLR267W): 1.2 | The level of expressed mRNA in the presence of chemical substance/ (yeast gene YLR280C): 1.2 | The level of expressed mRNA in the presence of chemical substance/ (yeast gene YLR290C): 1.3 | The level of expressed mRNA in the presence of chemical substance/ in its absence, gene YLR295C (yeast gene YLR295C, energy system protein genes, 2 h culture with the chemical, ratio to control without chemical): 0.9 | The level of expressed mRNA in the presence of chemical substance/ (ratio to absence), gene YLR295C (yeast gene YLR295C, mitochondria-located protein genes, 2 h culture with chemical): 0.9 | The level of expressed mRNA in the presence of chemical substance/in the absence of chemical substance (yeast gene YLR303W): 1.5 | The level of expressed mRNA in the presence of chemical substance/ (yeast gene YLR311C): 1.3 | The level of expressed mRNA in the presence of chemical substance/The level of expressed mRNA in the absence of chemical substance (yeast gene YLR327C): 3.3 | The level of expressed mRNA in the presence of chemical substance/in the absence of chemical substance (yeast gene YLR345W): 1.2 | The level of expressed mRNA in the presence of chemical substance/ (ratio to absence) (yeast gene YLR348C): 1.1 | The level of expressed mRNA in the presence of chemical substance/ (in its absence), gene YLR351C (yeast gene YLR351C, ratio of DNA chip fluorescence intensity to that without chemical substance): 1.3 | The level of expressed mRNA in the presence of chemical substance/The level of expressed mRNA in the absence of chemical substance (yeast gene YLR356W): 1.1 | The level of expressed mRNA in the presence of chemical substance/The level of expressed mRNA in the absence of chemical substance (yeast gene YLR362W): 1.2 | The level of expressed mRNA in the presence of chemical substance/ (in its absence), gene YLR375W (yeast gene YLR375W, ratio of DNA chip fluorescence intensity to that without chemical substance): 1.0 | The level of expressed mRNA in the presence of chemical substance/ (ratio to absence) (yeast gene YLR378C): 0.9 | The level of expressed mRNA in the presence of chemical substance/The level of expressed mRNA in the absence of chemical substance (yeast gene YLR391W): 1.4 | The level of expressed mRNA in the presence of chemical substance/The level of expressed mRNA in the absence of chemical substance (yeast gene YLR429W): 1.0 | The level of expressed mRNA in the presence of chemical substance/in the absence of chemical substance (yeast gene YML004C): 1.5 | The level of expressed mRNA in the presence of chemical substance/ (yeast gene YML068W): 1.0 | The level of expressed mRNA in the presence of chemical substance/ (ratio to absence) (yeast gene YML116W): 1.0 | The level of expressed mRNA in the presence of chemical substance/ in its absence, gene YML129C (yeast gene YML129C, energy system protein genes, 2 h culture with the chemical, ratio to control without chemical): 1.3 | The level of expressed mRNA in the presence of chemical substance/ (ratio to absence), gene YML129C (yeast gene YML129C, mitochondria-located protein genes, 2 h culture with chemical): 1.3 | The level of expressed mRNA in the presence of chemical substance/in the absence of chemical substance (yeast gene YML131W): 2.5 | The level of expressed mRNA in the presence of chemical substance/The level of expressed mRNA in the absence of chemical substance (yeast gene YMR004W): 0.9 | The level of expressed mRNA in the presence of chemical substance/ (ratio to absence), gene YMR023C (yeast gene YMR023C, mitochondria-located protein genes, 2 h culture with chemical): 1.1 | The level of expressed mRNA in the presence of chemical substance/ (yeast gene YMR034C): 1.8 | The level of expressed mRNA in the presence of chemical substance/ (yeast gene YMR041C): 0.8 | The level of expressed mRNA in the presence of chemical substance/ (ratio to absence) (yeast gene YMR056C): 1.0 | The level of expressed mRNA in the presence of chemical substance/ (ratio to absence) (yeast gene YMR058W): 0.6 | The level of expressed mRNA in the presence of chemical substance/The level of expressed mRNA in the absence of chemical substance (yeast gene YMR094W): 1.0 | The level of expressed mRNA in the presence of chemical substance/The level of expressed mRNA in the absence of chemical substance (yeast gene YMR104C): 2.8 | The level of expressed mRNA in the presence of chemical substance/ (yeast gene YMR178W): 1.1 | The level of expressed mRNA in the presence of chemical substance/ (ratio to absence of chemical substance) (yeast gene YMR186W): 0.7 | The level of expressed mRNA in the presence of chemical substance/ (ratio to absence) (yeast gene YMR203W): 0.8 | The level of expressed mRNA in the presence of chemical substance/The level of expressed mRNA in the absence of chemical substance (yeast gene YMR219W): 1.1 | The level of expressed mRNA in the presence of chemical substance/The level of expressed mRNA in the absence of chemical substance (yeast gene YMR226C): 1.6 | The level of expressed mRNA in the presence of chemical substance/ (yeast gene YMR253C): 1.2 | The level of expressed mRNA in the presence of chemical substance/ in its absence, gene YMR267W (yeast gene YMR267W, energy system protein genes, 2 h culture with the chemical, ratio to control without chemical): 0.9 | The level of expressed mRNA in the presence of chemical substance/ (ratio to absence), gene YMR267W (yeast gene YMR267W, mitochondria-located protein genes, 2 h culture with chemical): 0.9 | The level of expressed mRNA in the presence of chemical substance/ in its absence, gene YMR267W (yeast gene YMR267W, ratio of DNA chip fluorescence intensity to that without chemical substance): 0.9 | The level of expressed mRNA in the presence of chemical substance/The level of expressed mRNA in the absence of chemical substance (yeast gene YMR275C): 0.9 | The level of expressed mRNA in the presence of chemical substance/The level of expressed mRNA in the absence of chemical substance (yeast gene YMR276W): 1.2 | The level of expressed mRNA in the presence of chemical substance/ (in its absence), gene YMR278W (yeast gene YMR278W, ratio of DNA chip fluorescence intensity to that without chemical substance): 1.0 | The level of expressed mRNA in the presence of chemical substance/ (in its absence), gene YMR293C (yeast gene YMR293C, ratio of DNA chip fluorescence intensity to that without chemical substance): 0.8 | The level of expressed mRNA in the presence of chemical substance/The level of expressed mRNA in the absence of chemical substance (yeast gene YMR314W): 1.3 | The level of expressed mRNA in the presence of chemical substance/The level of expressed mRNA in the absence of chemical substance (yeast gene YNL006W): 1.0 | The level of expressed mRNA in the presence of chemical substance/The level of expressed mRNA in the absence of chemical substance (yeast gene YNL007C): 1.1 | The level of expressed mRNA in the presence of chemical substance/ (in its absence), gene YNL025C (yeast gene YNL025C, ratio of DNA chip fluorescence intensity to that without chemical substance): 0.7 | The level of expressed mRNA in the presence of chemical substance/ (ratio to absence) (yeast gene YNL055C): 1.2 | The level of expressed mRNA in the presence of chemical substance/ (ratio to absence of chemical substance) (yeast gene YNL064C): 0.7 | The level of expressed mRNA in the presence of chemical substance/in the absence of chemical substance (yeast gene YNL071W): 1.0 | The level of expressed mRNA in the presence of chemical substance/ (ratio to absence), gene YNL073W (yeast gene YNL073W, mitochondria-located protein genes, 2 h culture with chemical): 0.8 | The level of expressed mRNA in the presence of chemical substance/The level of expressed mRNA in the absence of chemical substance (yeast gene YNL093W): 3.0 | The level of expressed mRNA in the presence of chemical substance/ (yeast gene YNL122C): 1.0 | The level of expressed mRNA in the presence of chemical substance/ (ratio to absence) (yeast gene YNL142W): 1.0 | The level of expressed mRNA in the presence of chemical substance/ (in its absence), gene YNL192W (yeast gene YNL192W, ratio of DNA chip fluorescence intensity to that without chemical substance): 2.3

— patent US20050112573A1, “Method of detecting toxic substance” (priority 2001, published 2005)
